Source: patent US20040266766A1, “Selective urokinase inhibitors” (Wilex AG, priority 2001, published 2004)
Where a name gives a salt, the structure may show the parent alone. Read-outs that look alike come from different tables or passages of the source.

Columns and labels:
[1] = test system: rat prostate carcinoma; details: syngenic model for rat prostate carcinoma; cited from earlier work
[2] = test system: mouse mammary carcinoma; details: cited from earlier work
[3] = target: T1, urokinase (uPA) (Homo sapiens, UniProt P00749); experiment: In vitro inhibition of urokinase (Ki according to Dixon, chromogenic substrate); assay type: biochemical
T1 construct: purchased Calbiochem-Novabiochem GmbH, Bad Soden, Germany
How it was run: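 Chromogenic read-out in 0.05 mol/l Tris, 0.154 mol/l NaCl, pH 8.0, with inhibitor, substrate (Pefachrome uPA, Pefachrome PL or Pefabloc TH) and protease, incubated 10 min at 30 °C. Absorbance at 405 nm was read after ca. 30 min (30 cycles). Ki was derived by Dixon linear regression.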

[4] = target: T2, Plasmin (Homo sapiens, UniProt P00747); experiment: In vitro inhibition of plasmin (Ki according to Dixon); assay type: biochemical
T2 sequence (P00747 581-810 limits assumed, species assumed): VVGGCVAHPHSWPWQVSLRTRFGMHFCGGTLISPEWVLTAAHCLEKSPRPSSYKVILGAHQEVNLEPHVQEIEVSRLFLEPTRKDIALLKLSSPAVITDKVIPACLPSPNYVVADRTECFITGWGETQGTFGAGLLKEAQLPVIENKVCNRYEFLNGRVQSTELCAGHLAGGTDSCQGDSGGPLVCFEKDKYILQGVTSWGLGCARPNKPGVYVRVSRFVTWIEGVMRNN
T2 sequence (P00747 97-580 partner limits assumed, species assumed): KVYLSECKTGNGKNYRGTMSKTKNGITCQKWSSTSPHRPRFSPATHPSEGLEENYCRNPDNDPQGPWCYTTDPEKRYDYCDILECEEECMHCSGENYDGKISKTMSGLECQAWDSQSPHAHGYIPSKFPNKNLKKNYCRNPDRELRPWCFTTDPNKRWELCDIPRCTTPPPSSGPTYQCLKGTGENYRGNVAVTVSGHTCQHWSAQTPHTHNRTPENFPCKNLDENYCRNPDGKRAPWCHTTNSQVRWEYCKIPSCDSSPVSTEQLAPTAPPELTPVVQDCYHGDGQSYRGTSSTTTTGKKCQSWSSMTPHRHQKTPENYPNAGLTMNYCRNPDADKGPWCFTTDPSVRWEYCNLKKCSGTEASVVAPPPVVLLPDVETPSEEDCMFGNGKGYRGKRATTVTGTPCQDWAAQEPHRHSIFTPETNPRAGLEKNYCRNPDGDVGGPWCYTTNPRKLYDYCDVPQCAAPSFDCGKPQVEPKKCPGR
Method: (§1) In order to determine the inhibitory activity, 200 μl Tris buffer (0.05 mol/l containing the inhibitor, 0.154 mol/l NaCl, pH 8.0), 25 μl substrate (Pefachrome uPA, Pefachrome PL or Pefabloc TH in H2O; Pentapharm Ltd, Basle, Switzerland) and 50 μl urokinase (Calbiochem-Novabiochem GmbH, Bad Soden, Germany) or another appropriate protease e.g. plasmin, thrombin or FXa are incubated for 10 minutes at 30° C. After ca. 30 minutes and 30 cycles the absorption is determined at 405 nm by means of a microplate reader (Mediators PHL, Aureon Biosystems, Vienna, Austria). The Ki values were determined according to Dixon by linear regression using a computer program.

[5] = target: T3, Thrombin (Homo sapiens, UniProt P00734); experiment: In vitro inhibition of thrombin (Ki according to Dixon); assay type: biochemical
Method: as §1

[6] = target: PK (Homo sapiens, UniProt P03952); experiment: In vitro inhibition of PK (Ki); assay type: biochemical; details: summary table
Sequence of PK (P03952 20-638): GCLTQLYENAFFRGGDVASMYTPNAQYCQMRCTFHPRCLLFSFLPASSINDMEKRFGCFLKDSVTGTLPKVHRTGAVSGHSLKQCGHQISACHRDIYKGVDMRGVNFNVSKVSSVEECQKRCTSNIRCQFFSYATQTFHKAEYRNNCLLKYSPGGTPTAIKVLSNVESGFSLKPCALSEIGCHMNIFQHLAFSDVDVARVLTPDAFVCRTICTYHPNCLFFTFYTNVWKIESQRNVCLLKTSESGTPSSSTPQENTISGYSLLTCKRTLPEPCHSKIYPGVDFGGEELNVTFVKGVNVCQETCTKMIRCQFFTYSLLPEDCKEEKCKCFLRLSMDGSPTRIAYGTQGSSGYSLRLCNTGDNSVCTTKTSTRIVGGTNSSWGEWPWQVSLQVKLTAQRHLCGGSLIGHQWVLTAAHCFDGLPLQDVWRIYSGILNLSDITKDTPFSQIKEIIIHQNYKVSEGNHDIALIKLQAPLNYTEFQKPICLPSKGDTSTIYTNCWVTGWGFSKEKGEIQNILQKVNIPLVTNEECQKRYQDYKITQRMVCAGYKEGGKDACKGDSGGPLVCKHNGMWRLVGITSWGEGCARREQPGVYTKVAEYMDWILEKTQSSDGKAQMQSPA
Method: as §1

[7] = target: T4, urokinase (Homo sapiens, UniProt P00749); experiment: In vitro inhibition of urokinase by WX-508 (Example 15); assay type: biochemical
T4 construct: purchased Calbiochem-Novabiochem GmbH, Bad Soden, Germany
Method: (§2) In order to determine the uPA inhibitory activity, 200 μl Tris-buffer (0.05 mol/l containing the inhibitor, 0.154 mol/l NaCl, pH 8.0), 25 μl substrate (Pefachrome uPA or BZ-O-Ala-Gly-Arg-pNA in H2O; Pentapharm Ltd., Basle, Switzerland) and 50 μl urokinase (Calbiochem-Novabiochem GmbH, Bad Soden, Germany) or another appropriate protease are incubated at 30° C. After ca. 30 minutes and 30 cycles the absorption is determined at 405 nm by means of a microplate reader (Mediators PHL, Aureon Biosystems, Vienna, Austria). The Ki values were determined according to Dixon by linear regression using a computer program.

[8] = target: T2, Plasmin; experiment: In vitro inhibition of plasmin by WX-508 (Example 15); assay type: biochemical
Method: as §2

[9] = target: T3, Thrombin; experiment: In vitro inhibition of thrombin by WX-508 (Example 15); assay type: biochemical
Method: as §2

[10] = test system: Caco-2 cell monolayers; experiment: Caco-assay: transport across Caco-2 cell monolayers; assay type: in vitro ADME, human; details: for % amount in the basolateral compartment: 10 μg/ml apical, four hours; for Caco-2 assay % basolateral: first series
Method: Transport of the compounds WX-508, WXC-316, WXC-318, WXC-324, WXC-340, WX-532, WX-538, WX-550 and WX-582 across Caco-2 cell monolayers was investigated. In this experiment the bioavailability of the said compounds after oral administration was assessed.
Caco-2-cells (American Type Culture Collection, Rockville, Md., USA) were cultured in Dulbecco's modified Eagle medium (DMEM) (Life Technologies, Gibco BRL, UK) containing 10% vol/vol heat-denatured foetal calf serum (FCS), 1% vol/vol non-essential amino acids, 160 U/ml benzylpenicillin and 100 U/ml streptomycin (Sigma Chemical, St. Louis, Mo., USA). The cells are kept at 37° C. in an atmosphere comprising 95% air and 5% CO2 at 90% relative air humidity. The cells are cultured in […] culture flasks, the medium being replaced every second day and the cells are trypsinized once per week.
For the transport investigations the Caco-2 cells are cultured on porous polycarbonate filter membranes having a pore size of 0.4 μm and a surface of 4.7 cm^2 in clusters of 6 wells (Costar Transwell, Badhoevedorp, Netherlands). The cells are inoculated on each filter at an initial density of 10^4 cells/cm^2. These cells are kept at 37° C. in one of the atmospheres described above. The medium is replaced every second day for a period of three weeks.
On the day of the transport experiment the culture medium was replaced by the same volume of Hank's balanced saline solution (HBSS) buffered with 30 mM HEPES at pH 7.2 (transport medium) and the cells are allowed to equilibrate for 1 hour. Afterwards the apical medium is replaced by 1.5 ml of a solution containing one of the compounds in HBSS/HEPES (10 μg/ml). Cell monolayers are incubated for four hours. Samples of the apical and basolateral compartments are removed at the end of the experiments and used to quantitatively determine the transport of the respective compounds.
The transepithelial electric resistance (TEER) is measured before and after equilibration using a Milicell ERS meter which was connected to a pair of electrodes in order to ensure the integrity of the monolayers formed on the filters. TEER is also measured at the end of the experiments to ensure that the cell monolayer remains coherent.
Samples are taken from the apical and the basolateral side and analysed in a beta counter after adding a scintillation cocktail. All experiments were carried out three times.

[11] = Oral bioavailability and plasma kinetics in mice (serum concentration); assay type: in vivo, Balb/c mice; details: mouse; for concentration at 20 min / concentration at 40 min / concentration at 60 min: female, Balb/c, serum, po; for concentration at 20 min: sample at 20 minutes; for concentration at 40 min: sample at 40 minutes; for concentration at 60 min: sample at 60 minutes; for c in the serum 1st analysis / c in the serum 2nd analysis: 10 mg/kg i.v.
[12] = test system: rat breast adenocarcinoma cells; details: after i.v. inoculation of rat breast adenocarcinoma cells; cited from earlier work
[13] = target: uPA (Homo sapiens, UniProt P00749); details: background, literature; read-out: Ki, uPA (inhibition constant); cited from earlier work
[14] = test system: DU145 tumors (a prostate adenocarcinoma cell line); details: SCID mice, orally 125 to 250 mg/kg/day; cited from earlier work
[15] = 30 mg/kg, 30 mg/kg oral, read-out: c in the serum 1st analysis
[16] = 30 mg/kg, 30 mg/kg oral, read-out: c in the serum 2nd analysis
[17] = 300 mg/kg, 300 mg/kg oral, read-out: c in the serum 1st analysis
[18] = 300 mg/kg, 300 mg/kg oral, read-out: c in the serum 2nd analysis

N=C(N)c1cc2c(I)cccc2s1 [B428, 4-iodo-benzo[b]-thiophene-2-carboxamidine]
tumor growth and formation of metastases [1]: decrease in tumor growth and formation of metastases
primary tumor growth ([2]; administered together with the anti-oestrogen Tamoxifen): further decrease of primary tumor growth
tumor growth and formation of metastases ([2]; syngenic model for mouse mammary carcinoma): decrease in tumor growth and formation of metastases

N=C(N)Nc1ccc(CNC(=O)CNC(=O)[C@@H](CO)NS(=O)(=O)Cc2ccccc2)cc1 [WX-508, benzylsulfonyl-(D)-Ser-Gly-(4-guanidinobenzyl)amide hydrochloride]
Ki ([3]; list of test substances of Example 17, read-out: Ki human uPA): 0.034 µM
Ki ([3]; read-out: Ki uPA): 0.034 µM
Ki ([3]; summary table, read-out: Ki uPA): 0.034 µM
Ki [4]: > 200 µM
Ki ([4]; summary table): > 200 µM
Ki [5]: > 350 µM
Ki ([5]; summary table): > 350 µM
Ki [6]: 180 µM
Ki [7]: 0.04 µM
Ki [8]: > 1000 µM
Ki [9]: > 1000 µM
% amount in the basolateral compartment ([10]; first value column): 0.2%
% amount in the basolateral compartment ([10]; second value column): 0.1%
% amount in the basolateral compartment ([10]; third value column): 0.7%
Caco-2 assay % basolateral ([10]; first value): 0.2%
Caco-2 assay % basolateral ([10]; second value): 0.1%
Caco-2 assay % basolateral ([10]; third value): 0.7%
concentration at 20 min [11, 15]: 300 ng/mL
concentration at 20 min [11, 16]: 300 ng/mL
concentration at 40 min [11, 15]: 5700 ng/mL
concentration at 40 min [11, 16]: 4500 ng/mL
concentration at 60 min [11, 15]: 80 ng/mL
concentration at 60 min [11, 16]: 90 ng/mL
concentration at 20 min [11, 17]: 3500 ng/mL
concentration at 40 min [11, 17]: 7500 ng/mL
concentration at 40 min [11, 18]: 8300 ng/mL
concentration at 60 min [11, 17]: 5400 ng/mL
concentration at 60 min [11, 18]: 5800 ng/mL
c in the serum 1st analysis ([11]; time of sample collection 0): 41.1 µg/mL
c in the serum 2nd analysis ([11]; time of sample collection 0): 55.5 µg/mL
c in the serum 1st analysis ([11]; time of sample collection 10): 4.3 µg/mL
c in the serum 2nd analysis ([11]; time of sample collection 10): 4.7 µg/mL
c in the serum 1st analysis ([11]; time of sample collection 30): 0.7 µg/mL
c in the serum 2nd analysis ([11]; time of sample collection 30): 0.2 µg/mL

N=C(N)NC(=O)c1nc(Cl)c(N)nc1N [amiloride]
formation of lung metastases [12]: prevents the formation of lung metastases

N=C(N)c1ccc(N)cc1 [p-Aminobenzamidine]
Ki [13]: 82 µM
growth rate of DU145 tumors [14]: considerable decrease in the growth rate
side-effects [14]: negligibly small
